In the supplement of paper PMC4862054:
Values joined by “and” are separate entries in the source; they are usually repeats but may differ in a detail not shown here. Equal values may be shown once.

Experiments:
Conditions in all cases: incubation time: 72 h
BT-474 = assay: drug sensitivity score (DSS), CellTox Green (DSS (AUC-based score)); higher = stronger drug effect (viability inhibition or cytotoxicity); extreme values may be limits of the assay
In short: (§1)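 Each compound occupied 5 concentrations in 10-fold steps over its own 10,000-fold range in 384-well plates, into which breast cancer cell lines were seeded as 20 µl suspension. Following 72 h of incubation, CellTox Green fluorescence (485/520 nm) was measured, and CellTiter-Glo luminescence was measured after 10 min at room temperature. Plates were individually normalised to 0.1 % DMSO and a positive kill control. From the area under the fitted dose-response curve, a drug sensitivity score was calculated.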

BT-549 = assay: as above
In short: as §1

CAL-120 = assay: as above
In short: as §1

CAL-148 [1] = assay: as above
In short: as §1

CAL-51 [2] = assay: as above
In short: as §1

CAL-85-1 [3] = assay: as above
In short: as §1

DU-4475 [4] = assay: as above
In short: as §1

HCC1143 = assay: as above
In short: as §1

HCC1599 = assay: as above
In short: as §1

HCC1937 = assay: as above
In short: as §1

HDQ-P1 [5] = assay: as above
In short: as §1

Hs578T = assay: as above
In short: as §1

MCF-10A = assay: as above
In short: as §1

MDA-MB-231 = assay: as above
In short: as §1

MDA-MB-436 = assay: as above
In short: as §1

MDA-MB-453 [6] = assay: as above
In short: as §1

MDA-MB-468 = assay: as above
In short: as §1

MFM-223 = assay: as above
In short: as §1

CAL-148 [7] = assay: normalised viability (% of control), CellTiter-Blue; higher = more viable cells (about 100 = DMSO control)
Procedure: (§2)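 DSRT, CellTiter-Blue viability, 72 h incubation. Signal is normalised to DMSO and benzethonium chloride controls. Value is the normalised response at dose 8.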

CAL-51 [8] = assay: as above
Procedure: as §2

CAL-85-1 [9] = assay: as above
Procedure: as §2

DU-4475 [10] = assay: as above
Procedure: as §2

HDQ-P1 [11] = assay: as above
Procedure: as §2

MDA-MB-453 [12] = assay: as above
Procedure: as §2

CAL-148 [13] = assay: normalised viability (% of control), CellTiter-Blue; higher = more viable cells (about 100 = DMSO control); remark: listed apart in the source
In short: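 The reported quantity is normalised viability at a single listed concentration of the series. Compound in 5 µl medium was pre-dispensed into 384-well plates and 20 µl of breast cancer cell suspension was added for 72 h. A 2 h, 37 °C CellTiter-Blue step (2.5 µl) preceded fluorescence reading at 560/590 nm, and plates were normalised to vehicle (100) and a positive kill control (0).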

HDQ-P1 [14] = assay: normalised viability (% of control), CellTiter-Blue; higher = more viable cells (about 100 = DMSO control); remark: listed apart in the source
Procedure: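 DSRT, CellTiter-Blue viability, 72 h incubation. Signal is normalised to DMSO and benzethonium chloride controls. Value is the normalised response at dose 9.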

Row | SMILES | drug sensitivity score (BT-474) | drug sensitivity score (BT-549) | drug sensitivity score (CAL-120) | drug sensitivity score (CAL-148 [1]) | drug sensitivity score (CAL-51 [2]) | drug sensitivity score (CAL-85-1 [3]) | drug sensitivity score (DU-4475 [4]) | drug sensitivity score (HCC1143) | drug sensitivity score (HCC1599) | drug sensitivity score (HCC1937) | drug sensitivity score (HDQ-P1 [5]) | drug sensitivity score (Hs578T) | drug sensitivity score (MCF-10A) | drug sensitivity score (MDA-MB-231) | drug sensitivity score (MDA-MB-436) | drug sensitivity score (MDA-MB-453 [6]) | drug sensitivity score (MDA-MB-468) | drug sensitivity score (MFM-223) | also measured
1 | CC(C)c1c(C(=O)Nc2ccccc2)c(-c2ccccc2)c(-c2ccc(F)cc2)n1CC[C@@H](O)C[C@@H](O)CC(=O)O [Atorvastatin] | 0 | 0 | 1.49 | 0 | 13.9 | 0 | 0 | 0 | 0 | 0 | 0 | 4.71 | 8.07 | 13.1 | 0 | 0.0639 | 0 | 0 | 
2 | Cn1c(=O)n(-c2ccc(C(C)(C)C#N)cc2)c2c3cc(-c4cnc5ccccc5c4)ccc3ncc21 [NVP-BEZ235] |  |  |  |  |  |  |  |  |  |  |  |  |  |  |  |  |  |  | normalised viability (CAL-148 [7]; 300 nM): 10.7%; normalised viability (CAL-51 [8]; 300 nM): 12.4%; normalised viability (CAL-85-1 [9]; 300 nM): 29.5%; normalised viability (DU-4475 [10]; 300 nM): 15.8%; normalised viability (HDQ-P1 [11]; 300 nM): 26.5%; normalised viability (MDA-MB-453 [12]; 300 nM): 12.6%; normalised viability (CAL-148 [13]; 3 nM): 93%; normalised viability (HDQ-P1 [14]; 1000 nM): 34%
3 | CN(C)C[C@@H]1CCn2cc(c3ccccc32)C2=C(C(=O)NC2=O)c2cn(c3ccccc23)CCO1 [Ruboxistaurin] | 17.2 | 2.34 | 0.954 | 10.6 | 9.21 | 7.2 | 0 | 0 | 0 | 1.71 | 2.84 |  | 0 | 7.98 | 5.62 | 4.68 | 6.81 | 0 | normalised viability (CAL-148 [7]; 3000 nM): 79.4%; normalised viability (CAL-51 [8]; 3000 nM): 70.4%; normalised viability (CAL-85-1 [9]; 3000 nM): 106%; normalised viability (DU-4475 [10]; 3000 nM): 61.1%; normalised viability (HDQ-P1 [11]; 3000 nM): 74.2%; normalised viability (MDA-MB-453 [12]; 3000 nM): 74.2%; normalised viability (CAL-148 [13]; 30 nM): 116%; normalised viability (HDQ-P1 [14]; 10000 nM): 22.5%
4 | Nc1ncnc2c1c(COc1cccc(Cl)c1)nn2C1CCOCC1 | 0 | 0 | 0 | 0 | 0 | 0 | 0 | 0 | 0 | 0 | 0 | 0.27 | 0 | 0 | 0 | 0 | 0 | 0 | 
5 | Nc1nc(OCc2cc(Br)cs2)c2[nH]cnc2n1 [Lomeguatrib] | 0 | 0 | 0 | 0 | 0 | 0 | 0 | 0 | 0 | 1.11 | 0 | 0 | 0 | 0 | 0 | 0 | 0 | 0 | 
6 | NS(=O)(=O)OC[C@@H]1C[C@@H](n2ccc3c(N[C@H]4CCc5ccccc54)ncnc32)C[C@@H]1O [Pevonedistat] | 0 | 0 | 0 | 0 | 25.3 | 0 | 4.01 | 0 | 0.787 | 0 | 0 | 0.549 | 0 | 0 | 6.93 | 0 | 7.99 | 0 | 
7 | Cn1c(=O)n(-c2ccc(C(C)(C)C#N)cc2)c2c3cc(-c4cnc5ccccc5c4)ccc3ncc21 [Dactolisib] | 0 | 0 | 0 | 11.7 | 0 | 2.63 | 0 | 0 | 0 | 7.09 | 0 | 0 | 0 | 0 | 0 | 0 | 0 | 2.01 | 
8 | Cc1cc2c(C(C)C)c(O)c(O)c(C=O)c2c(O)c1-c1c(C)cc2c(C(C)C)c(O)c(O)c(C=O)c2c1O [Gossypol] |  |  |  |  |  |  |  |  |  |  |  |  |  |  |  |  |  |  | normalised viability (CAL-148 [7]; 30000 nM): 7.03%; normalised viability (CAL-51 [8]; 30000 nM): 3.25%; normalised viability (CAL-85-1 [9]; 30000 nM): 5.42%; normalised viability (DU-4475 [10]; 30000 nM): 4.25%; normalised viability (HDQ-P1 [11]; 30000 nM): 4.62%; normalised viability (MDA-MB-453 [12]; 30000 nM): 5.68%; normalised viability (CAL-148 [13]; 300 nM): 109%; normalised viability (HDQ-P1 [14]; 100000 nM): 4.15%
9 | Cc1ccc(NC(=O)c2ccc(CN3CCN(C)CC3)cc2)cc1Nc1nccc(-c2cccnc2)n1 [Imatinib] | 0 | 0 | 0 | 0 | 0 | 0 | 0 | 0 | 0 | 0 | 0 | 0.401 | 0 | 0 | 0 | 6.17 | 0 | 0 | normalised viability (CAL-148 [7]; 3000 nM): 102% and 90.9%; normalised viability (CAL-51 [8]; 3000 nM): 108% and 98.6%; normalised viability (CAL-85-1 [9]; 3000 nM): 96.1% and 95.3%; normalised viability (DU-4475 [10]; 3000 nM): 112% and 116%; normalised viability (HDQ-P1 [11]; 3000 nM): 118% and 119%; normalised viability (MDA-MB-453 [12]; 3000 nM): 86.2% and 83.6%; normalised viability (CAL-148 [13]; 30 nM): 89.8% and 88.6%
